{
  "source": "patent US9808470B2",
  "about": "“Estrogenic components for use in the treatment of neurological disorders” (UNIVERSITE DE LIEGE, priority 2012, dated 2017)",
  "format_in_all_cases": "in vivo",
  "key": {"[1]": {"system": "Myelin Basic Protein (MBP)", "assay": "Ex.7 neuroprotective HIE rat model: myelin basic protein staining", "details": "vs vehicle", "excerpt": "FIG. 21. Myelin Basic Protein (MBP) staining of brain coronal sections in rat pups that were pre-treated with estetrol. Brains were removed upon sacrifice at postnatal day 14 and paraformaldehyde-fixed and paraffin-embedded brain samples were coronally sectioned at the hippocampus region. The sections were processed for detection of white matter damage through immunohistological staining with anti-MBP antibody. (A-F) MBP staining of brain coronal sections (scale bar: 2 mm) is shown. (G-L) MBP staining of cingulum of the left hemisphere is (scale bar: 2 mm) shown. (M) The ratio of the MBP positive areas OD ratio was calculated as the MBP positive area OD of the ipsilateral hemisphere divided by the MBP positive area OD of the contralateral hemisphere. 10 samples from each study group were analyzed. The ratio of the MBP positive area OD in the Sham group was considered by default as 1.0.\nThe sections were processed for immunohistochemical detection of neuronal myelin basic protein disruption. For antigen retrieval, the sections were heated in 10 mmol/L citrate buffer (pH 6.0) at 100° C. for 10 min. […] 10 samples from each study group of both study designs were analyzed with the aid of an image scanner (Nanozoomer Virtual Microscopy, Hamamatsu, Tokyo, Japan) and ImageJ software (NIH, USA). The MBP positive areas optical densities in the ipsilateral and contralateral hemispheres were measured. […]"}, "[2]": {"system": "vascular endothelial growth factor (VEGF)", "assay": "Ex.8 therapeutic HIE rat model: VEGF staining", "details": "5 mg/kg/day E4, hippocampus (same region)", "protocol": "To study the therapeutic effect of estetrol, newborn rat pups were assigned to one of the following 14 groups at postnatal day 7 (FIG. 23(B)): Sham group (n=12), Vehicle (n=15), 5 mg/kg/day E4 (n=11), 10 mg/kg/day E4 (n=11), 5 mg/kg/day E4+1.6 mg/kg/day PROG (n=11), 10 mg/kg/day E4+1.6 mg/kg/day PROG (n=11), 5 mg/kg/day E4+16 mg/kg/day PROG (n=11), 10 mg/kg/day E4+16 mg/kg/day PROG (n=13), 5 mg/kg/day E4+136 ng//kg/day E2 (n=11), 10 mg/kg/day E4+136 ng/kg/day E2 (n=11), 5 mg/kg/day E4+1.6 mg/kg/day PROG+136 ng/kg/day E2 (n=12), 10 mg/kg/day E4+1.6 mg/kg/day PROG+136 ng/kg/day E2 (n=11), 5 mg/kg/day E4+16 mg/kg/day PROG+136 ng/kg/day E2 (n=11), 10 mg/kg/day E4+16 mg/kg/day PROG+136 ng/kg/day (n=12) groups. […] After surgery, the pups were returned to their dams and allowed to recover for 1 hour. The pups were then placed in a humidified hypoxic in vivo cabinet (CoyLab). […]\nThe sections were heated in 10 mmol/L citrate buffer (pH 6.0) at 100° C. for 10 minutes. […] Samples were analyzed with the aid of a microscope (Olympus Vanox AHBT3, Olympus), and the ImageJ software 15 (NIH). The percentage of positively stained cells was quantified as a sum of positively stained either DCX or VEGF cells divided by the total number of DAPI positive cells expressed in percentage."}, "[3]": {"system": "intact cells in hippocampus and cortex", "assay": "Ex.8 therapeutic HIE rat model: intact cell counting", "protocol": "To study the therapeutic effect of estetrol, newborn rat pups were assigned to one of the following 14 groups at postnatal day 7 (FIG. 23(B)): Sham group (n=12), Vehicle (n=15), 5 mg/kg/day E4 (n=11), 10 mg/kg/day E4 (n=11), 5 mg/kg/day E4+1.6 mg/kg/day PROG (n=11), 10 mg/kg/day E4+1.6 mg/kg/day PROG (n=11), 5 mg/kg/day E4+16 mg/kg/day PROG (n=11), 10 mg/kg/day E4+16 mg/kg/day PROG (n=13), 5 mg/kg/day E4+136 ng//kg/day E2 (n=11), 10 mg/kg/day E4+136 ng/kg/day E2 (n=11), 5 mg/kg/day E4+1.6 mg/kg/day PROG+136 ng/kg/day E2 (n=12), 10 mg/kg/day E4+1.6 mg/kg/day PROG+136 ng/kg/day E2 (n=11), 5 mg/kg/day E4+16 mg/kg/day PROG+136 ng/kg/day E2 (n=11), 10 mg/kg/day E4+16 mg/kg/day PROG+136 ng/kg/day (n=12) groups. […] After surgery, the pups were returned to their dams and allowed to recover for 1 hour. The pups were then placed in a humidified hypoxic in vivo cabinet (CoyLab). Hypoxia was produced by the inhalation of 11%-8% of oxygen balanced by nitrogen at decreased concentration of oxygen for 20 minutes, followed by inhalation of 8% oxygen and 92% nitrogen at constant concentration for 35 minutes. All the manipulations were performed at 37° C. Upon retrieval from the hypoxia chamber the rat pups were injected ip once either by vehicle (vehicle group) or by in accordance to the group assignment. The animals from the sham group went through similar procedures but proceeded neither left common carotid artery ligation and cut followed by hypoxia nor injections. Rat pups recovered with their dams until being sacrificed at postnatal day 14 (FIG. 24(B)). […]\nIntact cell counting was performed on hematoxylin-eosin-stained sections of the rat pups brains at magnification 400× in 3 fields of the respective brain area. […] The sections were analyzed with the aid of a microscope (Olympus BX51, Olympus, Tokyo, Japan), an image scanner (DotSlide Digital Virtual Microscopy, Olympus, Germany) and ImageJ software (NIH, US). […]"}},
  "data": [
    {"compound": "C[C@]12CC[C@@H]3c4ccc(O)cc4CC[C@H]3[C@@H]1[C@@H](O)[C@@H](O)[C@@H]2O", "note": "[E4, 1,3,5(10)-estratrien-3,15α,16α,17β-tetrol]", "values": [
      {"measurement": "ratio of the MBP-positive area OD", "setting": "[1]; 5 mg/kg/day E4 pre-treated", "value": "significantly higher"},
      {"measurement": "ratio of the MBP-positive area OD", "setting": "[1]; 50 mg/kg/day E4 pre-treated", "value": "significantly higher"},
      {"measurement": "VEGF positively stained cell percentage", "setting": "[2]", "value": "54.05±3.51", "unit": "%"},
      {"measurement": "number of intact cells", "setting": "[3]; 10 mg/kg/day E4, CA1", "value": "57.30±5.19"},
      {"measurement": "intact cell counting per visual field", "setting": "[3]; 10 mg/kg/day E4, DG", "value": "150.20±9.43"},
      {"measurement": "number of intact cells", "setting": "[3]; 10 mg/kg/day E4, cortex", "value": "46.60±1.83"}
    ]}
  ]
}
